According to patent US20110105397A1, “METHOD FOR TREATING HEART FAILURE WITH STRESSCOPIN-LIKE PEPTIDES” (priority 2009, published 2011):
Where two headings read alike, the source gives them in different places.

Assays:
[1] = tested on: Langendorff perfused rabbit heart; assay: Retrograde-perfused Langendorff rabbit heart assay; details: bolus into the perfusion block
Experimental: The effect of h-SCP (SEQ ID NO:1) on heart rate (HR), left ventricular (LV) contraction, and vascular tone was assessed in a retrograde-perfused Langendorff rabbit heart assay.

male dogs = assay: GLP cardiovascular safety study in male dogs; format: in vivo, dog
Experimental: The NOAEL of 33.3 ng/kg/min was determined in a GLP cardiovascular safety study in male dogs, which is considered to be the most relevant and sensitive species for cardiovascular drugs.
A NOAEL of 33.3 ng/kg/min was determined in a GLP cardiovascular safety study in male dogs, which is considered to be the most relevant and sensitive species for cardiovascular drugs. […] Based on these values a starting dose of 0.1 ng/kg/min was selected.

healthy subjects = assay: Human hemodynamics (impedance cardiography), healthy subjects, 7.5-hour ascending dose IV infusion; format: in vivo; details: for Heart Rate Change from Baseline / Heart Rate Percent Change from Baseline: post hoc analysis
Experimental: Efficacy was based on the pharmacodynamic evaluation of hemodynamics, which was monitored using the noninvasive technique of impedance cardiography. Heart rate values were collected by impedance cardiography measurements. It was noted that the heart rate of subjects receiving placebo were elevated on the day of their infusions, at baseline before the infusion, and for the first 3 to 4 hours after the infusions were started (FIG. 17). Based on this observation, it appeared that there was a potential effect of period on the observed heart rate.
A mixed-effect model with baseline as covariate, period and dose group (≦3 ng/kg/min−low, >3 to ≦36 ng/kg/min−mid, >36 ng/kg/min−high) as fixed effects, and a random subject effect was established using the heart rate change from baseline in healthy subjects.
To confirm that the statistically significant increase in heart rate is caused by the high dose group, a similar mixed-effect model that excluded the high dose level (>36 ng/kg/min) group was built up.
A post hoc graphical analysis of the hemodynamic data was done to adjust for the elevated baseline values seen just before onset of the infusion, to obtain the best estimate of each hemodynamic parameter, and to correct for the effect of period. A post hoc graphic presentation was prepared from the complete (high frequency) dataset. This dataset contains the raw data that were further processed by the vendor (ie, CardioDynamics) and reported only at specific time points.
In this post hoc analysis an extended baseline was used for each value that included all values recorded before initiation of the infusion. Then an average value for each parameter was obtained from the last 30 minutes of each 2.5 hour infusion and was used as the effect in that period of the infused dose. Each value was modified for the effect of period of infusion by subtracting the mean change from baseline seen in placebo subjects dosed in that same period (placebo subtraction). The dose effect was estimated by averaging the values from all subjects who received the same dose after the placebo subtraction.

[2] = Nonclinical pharmacokinetics in dogs; set-up: species or system dog; details: in vivo; for Cmax: read-out: Cmax
Experimental: A sandwich immunoassay was developed using an affinity purified goat polyclonal antibody, specific to h-SCP that was pre-coated onto a microplate with integrated electrodes. h-SCP molecules present in the sample will bind to the capture polyclonal antibody coated on the plate. After washing away any unbound substances, a sulfo-tagged mouse monoclonal anti-h-SCP antibody was added. This conjugated antibody will bind to the h-SCP molecules captured on the microplate and the quantity of analyte was determined by electrochemiluminescence. The amount of signal generated is directly proportional to the h-SCP concentration in the sample or standard. The standard curve range is 3.125-1600 pg/mL with a quantifiable range from 10-800 pg/mL. A sample volume of 25 μL (in duplicate) is required for this assay. This immunoassay is specific for human and dog stresscopin and human urocortin III (h-UCN3). […] After completion of the analysis, based on a comparison of reference standards between the ELISA and HPLC method, a correction factor of 1.57 was applied to all bioanalytical data.
The nonclinical pharmacokinetics of h-SCP (SEQ ID NO:1) and pegylated stresscopin-like peptides were studied in rats, dogs, and cynomolgus monkeys (cyno). Nonclinical pharmacokinetic studies focused on characterization of IV infusion at pharmacologically relevant dose levels, supplemented with IV and SC bolus and toxicokinetic analysis.

[3] = male, dog IV infusion 3 hours, M, 3.33 ng/kg/min
[4] = male, dog IV infusion 3 hours, M, 8.33 ng/kg/min
[5] = male, dog IV infusion 3 hours, M, 16.7 ng/kg/min
[6] = male, dog IV infusion 3 hours, M, 33.3 ng/kg/min

Substance: H-TKFTLSLDVPTNIMNLLFNIAKAKNLRAQAAANAHLMAQI-NH2 [SEQ ID NO: 1, TKFTLSLDVPTNIMNLLFNIAKAKNLRAQAAANAHLMAQI-NH2]
- EC50 ([1]; read-out: concentration for 50% response, decrease in coronary perfusion pressure (CPP)): 0.046 µM
- EC50 ([1]; read-out: concentration for 50% response, increase in heart rate): 0.052 µM
- EC50 ([1]; read-out: concentration for 50% response, increase in left ventricular developed pressure (dP/dtmax)): 0.0099 µM
- upper limit of plasma concentration (male dogs; dog, in vivo): 12.0 ng/mL
- safety margin (male dogs; expected Cpss at 0.1 ng/kg/min versus upper limit in dogs): 1,390 fold
- NOAEL (male dogs; male dogs): 33.3 ng/kg/min
- cardiac output or cardiac index (healthy subjects; all doses ≦36 ng/kg/min): no change in cardiac output or cardiac index
- heart rate compared with baseline (healthy subjects; doses less than 36 ng/kg/min): no notable increase in heart rate compared with baseline
- increase in heart rate from baseline (healthy subjects; doses of 72 ng/kg/min and higher, end of 2.5-hour infusion period): ~30 bpm
- Heart Rate Change from Baseline (healthy subjects; infusion rate 0.1 ng/kg/min): −2.8 bpm
- Heart Rate Percent Change from Baseline (healthy subjects; infusion rate 0.1 ng/kg/min): −4.6%
- Heart Rate Change from Baseline (healthy subjects; infusion rate 0.3 ng/kg/min): −0.4 bpm
- Heart Rate Percent Change from Baseline (healthy subjects; infusion rate 0.3 ng/kg/min): −0.2%
- Heart Rate Change from Baseline (healthy subjects; infusion rate 1 ng/kg/min): −2.0 bpm
- Heart Rate Percent Change from Baseline (healthy subjects; infusion rate 1 ng/kg/min): −3.3%
- Heart Rate Change from Baseline (healthy subjects; infusion rate 3 ng/kg/min): 1.3 bpm
- Heart Rate Percent Change from Baseline (healthy subjects; infusion rate 3 ng/kg/min): 2.6%
- Heart Rate Change from Baseline (healthy subjects; infusion rate 9 ng/kg/min): 0.1 bpm
- Heart Rate Percent Change from Baseline (healthy subjects; infusion rate 9 ng/kg/min): 0.6%
- Heart Rate Change from Baseline (healthy subjects; infusion rate 18 ng/kg/min): 2.1 bpm
- Heart Rate Percent Change from Baseline (healthy subjects; infusion rate 18 ng/kg/min): 3.9%
- Heart Rate Change from Baseline (healthy subjects; infusion rate 36 ng/kg/min): 5.2 bpm
- Heart Rate Percent Change from Baseline (healthy subjects; infusion rate 36 ng/kg/min): 9.4%
- Heart Rate Change from Baseline (healthy subjects; infusion rate 54 ng/kg/min): 12.7 bpm
- Heart Rate Percent Change from Baseline (healthy subjects; infusion rate 54 ng/kg/min): 20.5%
- Heart Rate Change from Baseline (healthy subjects; infusion rate 72 ng/kg/min): 18.1 bpm
- Heart Rate Percent Change from Baseline (healthy subjects; infusion rate 72 ng/kg/min): 30.3%
- Heart Rate Change from Baseline (healthy subjects; infusion rate 108 ng/kg/min): 20.9 bpm
- Heart Rate Percent Change from Baseline (healthy subjects; infusion rate 108 ng/kg/min): 31.3%
- Heart Rate Change from Baseline (healthy subjects; infusion rate 144 ng/kg/min): 21.2 bpm
- Heart Rate Percent Change from Baseline (healthy subjects; infusion rate 144 ng/kg/min): 34.3%
- half-life ([2]; dog, dogs, two-compartment analysis, read-out: alpha-phase half-life (t1/2 alpha)): 10 to 20 min
- half-life ([2]; dog, dogs, read-out: terminal phase half-life (converted)): ~60 min
- time to apparent steady-state plasma concentration after initiation of infusion ([2]; dog, iv): ≤ 1 h
- clearance ([2]; dog, dogs, 3.3 to 33.3 ng/kg/min, read-out: plasma clearance): ~0.24 L/h/kg
- half-life ([2]; male, dog, iv, 33.3 ng/kg/min, dog IV infusion 3 hours, M, 33.3 ng/kg/min, read-out: t1/2 alpha): 13.7 min
- half-life ([2]; male, dog, iv, 33.3 ng/kg/min, dog IV infusion 3 hours, M, 33.3 ng/kg/min, read-out: t1/2 terminal): 65.3 min
- Vd ([2]; male, dog, iv, Vss): 0.216 L/kg
- half-life ([2]; male, dog, iv, t1/2 alpha): 15.9 min
- half-life ([2]; male, dog, iv, t1/2 terminal): 59.6 min
- AUC(0-inf) [2, 3]: 2.34 ng·h/mL
- clearance ([2]; male, dog IV infusion 3 hours, M, 3.33 ng/kg/min, read-out: CL): 0.257 L/h/kg
- Cmax [2, 3]: 0.814 ng/mL
- AUC(0-inf) [2, 4]: 6.46 ng·h/mL
- clearance ([2]; male, dog IV infusion 3 hours, M, 8.33 ng/kg/min, read-out: CL): 0.232 L/h/kg
- Cmax [2, 4]: 2.38 ng/mL
- AUC(0-inf) [2, 5]: 12.8 ng·h/mL
- clearance ([2]; male, dog IV infusion 3 hours, M, 16.7 ng/kg/min, read-out: CL): 0.239 L/h/kg
- Cmax [2, 5]: 5.05 ng/mL
- AUC(0-inf) [2, 6]: 26.4 ng·h/mL
- clearance ([2]; male, dog IV infusion 3 hours, M, 33.3 ng/kg/min, read-out: CL): 0.237 L/h/kg
- Cmax [2, 6]: 10 ng/mL
- Vd ([2]; male, dog IV infusion 3 hours, M, 33.3 ng/kg/min, read-out: Vss): 0.161 L/kg
